Square brackets hold non-standard residues; d marks the D form. * marks the point of attachment. Pentanoyl(4-Me) = CC(C)CCC(=O)*; Aib = CC(C)(N)C(=O)O; For = O=C*

For experiment [1] the following is noted: in vivo; cited from earlier work.
The nature of experiment [2]: Food intake assay in overnight fasted mice. In kind it is in vivo. To be noted: 25 nmol/kg intraperitoneal. As for the experimental part: Female NIH/Swiss mice (8-14 weeks old) were group housed with a 12:12 hour light:dark cycle. Water and a standard pelleted mouse chow diet are available ad libitum, except as noted. Animals are fasted starting at approximately 1500 hrs, 1 day prior to experiment.
The effects of treatment on food intake are expressed as % change relative to control.

Experiment [3] can be described thus: Ethanol-induced gastric mucosal injury (gastroprotection). In kind it is in vivo, rats. To be noted: 250 mg intraperitoneal, t=−30 min from gavage. As for the experimental part:
Thirty min after gavage, each rat was anesthetized with 5% halothane, the stomach excised, opened along the lesser curvature and everted to expose the mucosa. The everted stomachs were gently rinsed with saline and immediately graded for mucosal damage by each of 10 observers blinded to the experimental treatment.
Stomachs were excised and graded for injury 30 min after ethanol gavage, as described above. The result is provided in the next to the last bar of FIG. 11A.
Stomachs were excised and graded for injury 30 min after ethanol gavage, as described above, and blood was taken for plasma glucose measurement. The injury response was also measured in glucose-treated rats coadministered a 3 mg intravenous bolus of AC187 (n=9).

On to “CSNLSTCVLGKLSQELHKLQTYPRTNTGSGTP (listed as Oncorhynchus sp.) [salmon calcitonin]”, for which the “time course of effect in food intake assays” value in experiment [1] is “delayed effect, with peak levels still maintained at 240 minutes”.

Regarding “KCNTAVCVLGRLSQELHRLQTYPRTNTGSNTY [Compound 37]”, in experiment [2], the “cumulative food intake compared to vehicle, 30 min” value was −3%; the “cumulative food intake compared to vehicle, 60 min” value was −2%; the “cumulative food intake compared to vehicle, 120 min” value was −16%.

For “Isocaproyl-STAVL(Aib)[K(For)]LSQEL(Aib)[K(For)]LQTYPRTNTGSNTY ({Pentanoyl(4-Me)}-STAVL[Aib]K(For)LSQEL[Aib]K(For)LQTYPRTNTGSNTY-NH2; SMILES CC(C)CCC(=O)N[C@@H](CO)C(=O)N[C@H](C(=O)N[C@@H](C)C(=O)N[C@H](C(=O)N[C@@H](CC(C)C)C(=O)NC(C)(C)C(=O)N[C@@H](CCCCNC=O)C(=O)N[C@@H](CC(C)C)C(=O)N[C@@H](CO)C(=O)N[C@@H](CCC(N)=O)C(=O)N[C@@H](CCC(=O)O)C(=O)N[C@@H](CC(C)C)C(=O)NC(C)(C)C(=O)N[C@@H](CCCCNC=O)C(=O)N[C@@H](CC(C)C)C(=O)N[C@@H](CCC(N)=O)C(=O)N[C@H](C(=O)N[C@@H](Cc1ccc(O)cc1)C(=O)N1CCC[C@H]1C(=O)N[C@@H](CCCNC(=N)N)C(=O)N[C@H](C(=O)N[C@@H](CC(N)=O)C(=O)N[C@H](C(=O)NCC(=O)N[C@@H](CO)C(=O)N[C@@H](CC(N)=O)C(=O)N[C@H](C(=O)N[C@@H](Cc1ccc(O)cc1)C(N)=O)[C@@H](C)O)[C@@H](C)O)[C@@H](C)O)[C@@H](C)O)C(C)C)[C@@H](C)O) [Compound 31]”, in experiment [2], the “cumulative food intake compared to vehicle, 30 min” value is −11%; the “cumulative food intake compared to vehicle, 60 min” value is recorded as −18%; the “cumulative food intake compared to vehicle, 120 min” value is −23%.

For the molecule “Ac-ACNTATCVLGRLSQELHK(PEG5000)LQTYPRTNTGSNTY [Compound 47]”, in experiment [2], the “cumulative food intake compared to vehicle, 30 min” value is listed as −5%; the “cumulative food intake compared to vehicle, 60 min” value is given as −13%; the “cumulative food intake compared to vehicle, 120 min” value is recorded as −27%.

Turning to “KCNTATCVLGRLSQELHRLQTLLQTYPRTNTGSNTY [Compound 48]”, in experiment [2], the “cumulative food intake compared to vehicle, 30 min” value is −54%; the “cumulative food intake compared to vehicle, 60 min” value is −51%; the “cumulative food intake compared to vehicle, 120 min” value was −36%.

For the molecule “CNTATCVLGRLADFLHRLQTYPRTNTGSNTY [Compound 110]”, in experiment [2], the “cumulative food intake compared to vehicle, 30 min” value is on record as −80%; the “cumulative food intake compared to vehicle, 60 min” value is reported as −72%; the “cumulative food intake compared to vehicle, 120 min” value is −59%.

On to “Isocaproyl-STAVL(Aib)[K(For)]LSQEL(Aib)[K(For)]LQTYPRTNVGSNTY ({Pentanoyl(4-Me)}-STAVL[Aib]K(For)LSQEL[Aib]K(For)LQTYPRTNVGSNTY-NH2; SMILES CC(C)CCC(=O)N[C@@H](CO)C(=O)N[C@H](C(=O)N[C@@H](C)C(=O)N[C@H](C(=O)N[C@@H](CC(C)C)C(=O)NC(C)(C)C(=O)N[C@@H](CCCCNC=O)C(=O)N[C@@H](CC(C)C)C(=O)N[C@@H](CO)C(=O)N[C@@H](CCC(N)=O)C(=O)N[C@@H](CCC(=O)O)C(=O)N[C@@H](CC(C)C)C(=O)NC(C)(C)C(=O)N[C@@H](CCCCNC=O)C(=O)N[C@@H](CC(C)C)C(=O)N[C@@H](CCC(N)=O)C(=O)N[C@H](C(=O)N[C@@H](Cc1ccc(O)cc1)C(=O)N1CCC[C@H]1C(=O)N[C@@H](CCCNC(=N)N)C(=O)N[C@H](C(=O)N[C@@H](CC(N)=O)C(=O)N[C@H](C(=O)NCC(=O)N[C@@H](CO)C(=O)N[C@@H](CC(N)=O)C(=O)N[C@H](C(=O)N[C@@H](Cc1ccc(O)cc1)C(N)=O)[C@@H](C)O)C(C)C)[C@@H](C)O)[C@@H](C)O)C(C)C)[C@@H](C)O) [Compound 32]”, for which, in experiment [2], the “cumulative food intake compared to vehicle, 30 min” value is reported as −15%; the “cumulative food intake compared to vehicle, 60 min” value was −21%; the “cumulative food intake compared to vehicle, 120 min” value is listed as −31%.

For `O=C[C@H](O)[C@@H](O)[C@H](O)[C@H](O)CO` [D-glucose], the “decrease of gastric injury score” value in experiment [3] is listed as 18.5±4.6%.

Regarding “KCNTATCVLGRLSQELHRLQTYPRTNTGSGTP [Compound 25]”, in experiment [2], the “cumulative food intake compared to vehicle, 30 min” value is on record as −29%; the “cumulative food intake compared to vehicle, 60 min” value is recorded as −34%; the “cumulative food intake compared to vehicle, 120 min” value was −45%.

On to “KCNTATCATQRLSQELHRLQTYPRTNVGSNTY [Compound 52]”, for which, in experiment [2], the “cumulative food intake compared to vehicle, 30 min” value is −29%; the “cumulative food intake compared to vehicle, 60 min” value was −24%; the “cumulative food intake compared to vehicle, 120 min” value was −23%.

Consider “KCDTATCVLGRLSQELHRLQTYPRTNTGSNTY [Compound 111]”, for which, in experiment [2], the “cumulative food intake compared to vehicle, 30 min” value is reported as −39%; the “cumulative food intake compared to vehicle, 60 min” value is listed as −37%; the “cumulative food intake compared to vehicle, 120 min” value was −32%.

As for “KCNTATCLLQQLQKLLQKLKQYPRTNTGSNTY [Compound 35]”, in experiment [2], the “cumulative food intake compared to vehicle, 30 min” value is on record as −20%; the “cumulative food intake compared to vehicle, 60 min” value was −16%; the “cumulative food intake compared to vehicle, 120 min” value is listed as −18%.

Turning to “DSNLSTKVLGRLSQELHRLQTYPRTNTGSNTY [Compound 68]”, in experiment [2], the “cumulative food intake compared to vehicle, 30 min” value is reported as −10%; the “cumulative food intake compared to vehicle, 60 min” value is on record as −13%; the “cumulative food intake compared to vehicle, 120 min” value is on record as −21%.

Regarding “Isocaproyl-STAVL(Aib)RLSQELRLQTYPRTNTGSGTP ({Pentanoyl(4-Me)}-STAVL[Aib]RLSQELRLQTYPRTNTGSGTP-NH2; SMILES CC(C)CCC(=O)N[C@@H](CO)C(=O)N[C@H](C(=O)N[C@@H](C)C(=O)N[C@H](C(=O)N[C@@H](CC(C)C)C(=O)NC(C)(C)C(=O)N[C@@H](CCCNC(=N)N)C(=O)N[C@@H](CC(C)C)C(=O)N[C@@H](CO)C(=O)N[C@@H](CCC(N)=O)C(=O)N[C@@H](CCC(=O)O)C(=O)N[C@@H](CC(C)C)C(=O)N[C@@H](CCCNC(=N)N)C(=O)N[C@@H](CC(C)C)C(=O)N[C@@H](CCC(N)=O)C(=O)N[C@H](C(=O)N[C@@H](Cc1ccc(O)cc1)C(=O)N1CCC[C@H]1C(=O)N[C@@H](CCCNC(=N)N)C(=O)N[C@H](C(=O)N[C@@H](CC(N)=O)C(=O)N[C@H](C(=O)NCC(=O)N[C@@H](CO)C(=O)NCC(=O)N[C@H](C(=O)N1CCC[C@H]1C(N)=O)[C@@H](C)O)[C@@H](C)O)[C@@H](C)O)[C@@H](C)O)C(C)C)[C@@H](C)O) [Compound 29]”, in experiment [2], the “cumulative food intake compared to vehicle, 30 min” value is on record as 4%; the “cumulative food intake compared to vehicle, 60 min” value is −1%; the “cumulative food intake compared to vehicle, 120 min” value is −25%.

For “KCNTATCVLGRLSQELHRLQTYPRTNTGSETF [Compound 91]”, in experiment [2], the “cumulative food intake compared to vehicle, 30 min” value is listed as −59%; the “cumulative food intake compared to vehicle, 60 min” value is recorded as −47%; the “cumulative food intake compared to vehicle, 120 min” value was −26%; the “cumulative food intake compared to vehicle, 180 min” value is reported as −24%.

With “Isocaproyl-STAVLG[K(For)]LSQELH[K(For)]LQTYPRTNTGSGTP ({Pentanoyl(4-Me)}-STAVLGK(For)LSQELHK(For)LQTYPRTNTGSGTP-NH2; SMILES CC(C)CCC(=O)N[C@@H](CO)C(=O)N[C@H](C(=O)N[C@@H](C)C(=O)N[C@H](C(=O)N[C@@H](CC(C)C)C(=O)NCC(=O)N[C@@H](CCCCNC=O)C(=O)N[C@@H](CC(C)C)C(=O)N[C@@H](CO)C(=O)N[C@@H](CCC(N)=O)C(=O)N[C@@H](CCC(=O)O)C(=O)N[C@@H](CC(C)C)C(=O)N[C@@H](Cc1c[nH]cn1)C(=O)N[C@@H](CCCCNC=O)C(=O)N[C@@H](CC(C)C)C(=O)N[C@@H](CCC(N)=O)C(=O)N[C@H](C(=O)N[C@@H](Cc1ccc(O)cc1)C(=O)N1CCC[C@H]1C(=O)N[C@@H](CCCNC(=N)N)C(=O)N[C@H](C(=O)N[C@@H](CC(N)=O)C(=O)N[C@H](C(=O)NCC(=O)N[C@@H](CO)C(=O)NCC(=O)N[C@H](C(=O)N1CCC[C@H]1C(N)=O)[C@@H](C)O)[C@@H](C)O)[C@@H](C)O)[C@@H](C)O)C(C)C)[C@@H](C)O) [Compound 30]”, in experiment [2], the “cumulative food intake compared to vehicle, 30 min” value is −1%; the “cumulative food intake compared to vehicle, 60 min” value is listed as −2%; the “cumulative food intake compared to vehicle, 120 min” value is −19%.

Consider “KCNTATCMLGRYTQDFHRLQTYPRTNTGSNTY [Compound 66]”, for which, in experiment [2], the “cumulative food intake compared to vehicle, 30 min” value was −13%; the “cumulative food intake compared to vehicle, 60 min” value is listed as −15%; the “cumulative food intake compared to vehicle, 120 min” value is listed as −28%.

Regarding “KCNTATCVLGRLSQELHRLQTLPPTNVGSNTY [Compound 13]”, in experiment [2], the “cumulative food intake compared to vehicle, 30 min” value is −40%; the “cumulative food intake compared to vehicle, 60 min” value is listed as −33%; the “cumulative food intake compared to vehicle, 120 min” value was −25%; the “cumulative food intake compared to vehicle, 180 min” value is reported as −24%.

On to “KCNTATCVLGRLAEFLHRLQTYPRTNTGSNTY [Compound 104]”, for which, in experiment [2], the “cumulative food intake compared to vehicle, 30 min” value is −69%; the “cumulative food intake compared to vehicle, 60 min” value is −67%; the “cumulative food intake compared to vehicle, 120 min” value is given as −54%.

“KCNTSTCATQRLANELVRLQTYPRTNVGSEAF [Compound 84]”: in experiment [2], the “cumulative food intake compared to vehicle, 30 min” value is −53%; the “cumulative food intake compared to vehicle, 60 min” value is −40%; the “cumulative food intake compared to vehicle, 120 min” value is on record as −20%.

The values are drawn from patent US8598120B2 (Amylin Pharmaceuticals, LLC, priority 2004, dated 2013).
